From patent US8138191B2, “Inhibitor compounds and cancer treatment methods” (Critical Outcome Technologies Inc., priority 2007, dated 2012)

What was measured:
[1] = tested on: PI3K activity in SHP77 cells; assay: PI3-K activity (PIP3 detection, Echelon kit), SHP77; assay type: cell-based, human; conditions: SHP77, 250 nM COTI-2 alone, 20 minutes
Excerpt: As a negative control, an equivalent volume of DMSO was utilized. […] To measure PI3-K activity, a commercial kit was purchased from Echelon. Following the procedures recommended by the manufacturer, membrane lipids were extracted in several steps and the resulting PIP3 was immobilized to nitrocellulose and measured by its interaction with a PH-domain containing protein and HRP-conjugated antibody supplied with the kit. As an additional control in these experiments, the specific PI3-K inhibitor, LY294002 was used to inhibit PI3-K and thus stop PIP3 production.

[2] = Metabolic Stability (liver microsomes, human); assay type: in vitro ADME
Description: (§1) Metabolic stability was determined in human (mixed gender and pool of 50) monkey (male Cynomolgus, pool of 6 or more), dog male, beagle, pool of 4 or more) and rat (male Sprague-Dawley, pool of 100 or more) liver microsomes. […] Four reference substrates (1 μM) were tested simultaneously with COTI-2. […] Peak areas corresponding to COTI-2 were recorded by HPLC-MS/MS. Metabolic stability, expressed as percent of COTI-2 remaining, was calculated by comparing the peak area of COTI-2 at 60 min to time zero.

CYP2C19 = CYP2C19 (Homo sapiens, UniProt P33261); assay: in vitro; conditions: both
Chain of CYP2C19 (P33261 whole entry): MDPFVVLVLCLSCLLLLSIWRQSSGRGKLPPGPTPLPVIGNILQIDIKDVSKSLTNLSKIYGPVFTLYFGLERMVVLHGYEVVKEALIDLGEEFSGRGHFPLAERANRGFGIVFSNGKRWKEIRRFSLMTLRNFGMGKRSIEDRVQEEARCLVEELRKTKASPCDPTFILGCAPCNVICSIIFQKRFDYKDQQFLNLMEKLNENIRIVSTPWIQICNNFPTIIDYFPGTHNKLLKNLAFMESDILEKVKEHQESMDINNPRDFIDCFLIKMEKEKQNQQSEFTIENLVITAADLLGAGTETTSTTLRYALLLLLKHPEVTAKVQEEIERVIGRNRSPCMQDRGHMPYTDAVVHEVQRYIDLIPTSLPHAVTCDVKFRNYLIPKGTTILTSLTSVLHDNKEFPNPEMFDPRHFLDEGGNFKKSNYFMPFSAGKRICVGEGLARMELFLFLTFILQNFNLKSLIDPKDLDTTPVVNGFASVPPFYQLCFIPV

HL-60 = assay: Flow cytometric analysis of cell death (Annexin V/PI), HL-60; assay type: cell-based, human; conditions: HL-60, 200 nM
Description: (§2) All cell lines were grown and exposed to various concentrations of COTI-2 or vehicle only control and the percentage of dead or dying cells were determined 24 and 48 h post-exposure by Annexin V and propidium iodide.
(§3) HL-60 (human promyelocytic leukemia) cells were grown as non-adherent cells in flasks in RPMI 1640 medium supplemented with 10% FBS. H226 (human non-small cell lung cancer) cells were grown in Eagle's MEM supplemented with 10% FBS. Both cell lines were obtained from the American Type Culture Collection (ATCC)(Rockville, Md.) and maintained at 37° C. in a humidified 5% CO2 atmosphere.
(§4) Cells were plated in 25-cm^2 flasks and treated with COTI-2 (0-100 μM) added from a stock DMSO/DMEM solution such that DMSO concentrations never exceeded 0.5%. Control cells were treated with stock DMSO/DMEM. […] Resuspended cells (100 μl) were incubated in the dark with 10 μl propidium iodide (PI, 50 ng per ml; Sigma, St. Louis, Mo.) plus Annexin V-FITC (25 ng per ml, green fluorescence; BD Biosciences, Mississauga, Ontario). […] Samples were analyzed for combined Annexin V/PI staining (to assess dead plus apoptotic cells) using a Beckman Coulter EPCS XL-MCL flow cytometer (Beckman Coulter, Hileah, Fla.) and the data were analyzed with CellQuest software.

[3] = In vivo pharmacokinetics in rats, IV dosing; conditions: IV
Excerpt: Pharmacokinetic studies in animal models provide valuable information that enables prediction of metabolism in humans. There are a large variety of animal models that allow for the pharmacokinetic evaluation of compounds by providing information on serum, plasma, and tissue levels. […] As a result, it is important to keep this phenomenon in mind during extrapolations from animal to human metabolism. An initial pharmacokinetic assessment of COTI-2, administered both intravenously and orally, in its parent formulation and as both an oxalate and tartrate salt were evaluated in rats.
A single oral or IV dose of the COTI-2 free-base or the aforementioned salt forms was administered to groups of male and female rats and blood samples collected and processed at several time-points post-treatment.

[4] = Metabolic Stability (liver microsomes, monkey, Cynomolgus); assay type: in vitro ADME; conditions: 1.0E−06 M, 60 min
Description: as §1

H226 [5] = assay: Flow cytometric analysis of cell death (Annexin V/PI), H226; assay type: cell-based, human; conditions: H226, 15 μM, 48 h
Description: as §2, §3, §4

[6] = tested on: AKT1, AKT2, AKT3 expression in a panel of cell lines; assay: Correlation between AKT isoform expression and COTI-2 IC50 in a panel of cell lines; assay type: cell-based, human; conditions: corrected for total AKT expression
Excerpt: Cell cultures were maintained under regular tissue culture conditions and passaged 1-2 times a week as recommended by ATCC. For siRNA experiments the manufacturer's conditions for growth and transfection were followed. All siRNA reagents for AKT and AKT2 transfections were obtained from Cell Signaling.
Routine laboratory methods were employed for the production of cellular lysates, protein quantification, SDS-PAGE and western blotting. All antibodies were obtained from Cell Signaling and Abcam. To determine total AKT & AKT2 in DMS114 cells, 5×10^4 cells were incubated for 48 h with 10-100 ng of AKT2 siRNA or a scrambled control oligonucleotide. Cells were lysed and 50 μg of protein was separated by SDS-PAGE and blotted with antibody to total AKT or AKT2.
The expression of AKT1, AKT2, AKT3, total AKT and β-actin were examined in a panel of cell lines representing various types of cancers, with the aim of determining if a correlation exists with the pre-determined IC50's for these cell lines. […] The down-regulation of AKT2 prior to the addition of COTI-2 was confirmed with western blotting in DMS114 cell lines using an antibody to AKT2 (FIG. 35).

H226 [7] = assay: in vitro IC50 against cancer cell lines, H226; assay type: cell-based; conditions: Homo sapiens, NCI-H226, 72 h; H226, NSCLC, 3 days
Description: Briefly, cells were plated in plastic tissue culture plates and grown under standard conditions for each cell line, in carbon dioxide/oxygen atmosphere in plastic tissue culture plates, in the presence of COTI-2 or COTI-219 compounds at 35° C. for 3 days. Control cultures were treated with vehicle minus compound. Cells were counted after 3 days in culture and at a cell density of no more than 80%. The following cell lines, obtained from the National Cancer Institute, were tested: human SCLC cell lines DMS153, DMS114, SHP77; human NSCLC cell lines H226, A460, A560; human breast cancer cell lines T47D, MCF7; human colon cancer cell line HT29; and, human Leukemia cell lines K562, HL60.

[8] = tested on: Akt kinase activity in SHP-77 cells; assay: Akt kinase activity (immunoprecipitated Akt, GSK-3 phosphorylation), SHP-77; conditions: SHP-77, 250 nM, 2-24 hrs

What does the source list for `S=C(N/N=C1/CCCc2cccnc21)N1CCN(c2ccccn2)CC1` [COTI-2]?
PI3K activity (PIP3 levels) [1]: did not inhibit PI3K activity; percent remaining at 60 min ([2]; 1.0 μM): 31%; Mean Parent Remaining ([2]; 1.0E−06 M, 60 min, mean): 31%; inhibition at 15 min, 10 µM (CYP2C19; human liver microsomes, pH 7.4, probe omeprazole (10 µM)): 4%; inhibition at 15 min, 10 µM (CYP2C19; liver microsomes, pH 7.4, probe omeprazole): < 50%; induction of death (HL-60; 24 h): greater than 30%; induction of death (HL-60; 48 h): greater than 70%; clearance (CL) from plasma, fold higher than the oxalate formulation [3]: approximately 1.4 fold; clearance (CL) from plasma, fold higher than the tartrate formulation [3]: ~2.3 fold; Mean Parent Remaining [4]: 2%; induction of apoptosis and death (H226 [5]): approximately 40%; correlation of AKT2 expression with COTI-2 IC50 [6]: inversely correlated; IC50 (H226 [7]): 15 µM; Akt kinase activity [8]: more gradual decrease
